The values that follow come from patent publication US8530474B2, “Substituted 6-(1-piperazinyl)-pyridazines as 5-HT6 receptor antagonists” (Janssen Pharmaceutica NV, priority 2008, dated 2013).

Counter-ions that a name gives are not always drawn. Where only a bound is given, the exact number is not on record here.

The target of series [1] is T1, human H3 receptor (Homo sapiens, UniProt Q9Y5N1).
T1 construct: expressed in transfected cells
Kind of series: In vitro binding assay for human H3 receptor (125I-iodoproxyfan, SK-N-MC cell membranes). The note with it: iodoproxifan 1 nM, Ki converted from IC50. How it is done:
In vitro Binding Assay for Human H3 Receptor
Briefly, cell pellets from SK-N-MC cells expressing the human H3 receptor were homogenized in 50 mM Tris-HCl/5 mM EDTA and recentrifuged at 30000 g for 30 min. Pellets were rehomogenized in 50 mM Tris/5 mM EDTA (pH 7.4). Membranes were incubated for 1 h at 25° C. with ^125I-iodoproxyfan diluted with cold iodoproxifan in 50 mM Tris-HCl/5 mM EDTA. The final total iodoproxifan concentration in the reactions is 1 nM. The cold iodoproxifan is included at 0.975 nM and the ^125I-iodoproxyfan is included at 0.025 nM final concentration. The reactions were terminated by filtration thru GF/B plates (pretreated with 0.3% polyethylenimine) on the cell harvester. The plates were washed 5 times with buffer. Nonspecific binding was defined in the presence of 100 μM histamine Inhibitory concentration (responsible for 50% inhibition of maximal effect, IC50) values were determined by a single site curve-fitting program (GraphPad, San Diego, Calif.) and converted to Ki values based on a ^125I-iodoproxyfan dissociation constant (Kd) of 1 nM.

The target of series [2] is T2, human Serotonin 5-HT6 receptor (Homo sapiens, UniProt P50406).
T2 construct: expressed in transfected cells; host or cells: HEK cells
T2 sequence (P50406 whole entry): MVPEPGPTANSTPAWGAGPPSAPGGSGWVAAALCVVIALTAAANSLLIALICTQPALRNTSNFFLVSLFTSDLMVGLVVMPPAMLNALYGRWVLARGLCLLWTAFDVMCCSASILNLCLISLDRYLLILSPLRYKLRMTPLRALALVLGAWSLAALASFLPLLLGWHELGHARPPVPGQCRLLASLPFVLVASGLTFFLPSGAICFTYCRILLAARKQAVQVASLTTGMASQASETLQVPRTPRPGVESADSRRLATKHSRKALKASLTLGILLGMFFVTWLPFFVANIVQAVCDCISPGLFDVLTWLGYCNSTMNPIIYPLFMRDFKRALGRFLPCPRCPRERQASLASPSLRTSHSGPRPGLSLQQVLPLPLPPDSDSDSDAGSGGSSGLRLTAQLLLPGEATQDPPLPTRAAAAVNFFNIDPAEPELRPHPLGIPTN
Kind of series: In vitro binding affinity for human 5-HT6 receptor ([3H]LSD, membranes of transfected HEK cells). To be noted: human 5-HT6, [3H]Lysergic acid diethylamide 2 nM, HEK cell membranes; read-out: pIC50 Values (5-HT6) (converted). How it is done:
D. Pharmacology In vitro Binding Affinity for Human 5-HT6 Receptor
Frozen membranes of human Serotonin 5-HT6 receptor-transfected HEK cells were thawed, briefly homogenized using an Ultra-Turrax T25 homogeniser and diluted in 50 mM Tris-HCl assay buffer containing 10 mM MgCl2, 1 mM EDTA and 10 μM Pargyline (adjusted to pH 7.4 with HCl) to an appropriate protein concentration optimized for specific and non-specific binding. Radioligand [^3H]Lysergic acid diethylamide (Perkin Elmer, specific activity ˜80 Ci/mmol) was diluted in assay buffer at a concentration of 20 nM. Radioligand (20 μl), along with 40 μl of either the 10% DMSO control, Methiothepine (10^−5M final concentration for measurement of non specific binding), or compound of interest, was then incubated with 70 μl of the prepared membrane solution and 70 μl of WGA (wheat germ agglutinin) coated PVT (polyvinyltoluidene) beads (0.25 mg/well final concentration). The final concentration of radioligand per well was 2 nM. After shaking for 24 h. at RT, plates were counted in a Topcount™ scintillation counter. Percentage specific binding and competition binding curves were calculated using S-Plus software (Insightful).

Series [3] addresses T1, human H3 receptor. To be noted: used to convert IC50 to Ki, read-out: dissociation constant (Kd) of radioligand; cited from earlier work.

T1 sequence (Q9Y5N1 whole entry): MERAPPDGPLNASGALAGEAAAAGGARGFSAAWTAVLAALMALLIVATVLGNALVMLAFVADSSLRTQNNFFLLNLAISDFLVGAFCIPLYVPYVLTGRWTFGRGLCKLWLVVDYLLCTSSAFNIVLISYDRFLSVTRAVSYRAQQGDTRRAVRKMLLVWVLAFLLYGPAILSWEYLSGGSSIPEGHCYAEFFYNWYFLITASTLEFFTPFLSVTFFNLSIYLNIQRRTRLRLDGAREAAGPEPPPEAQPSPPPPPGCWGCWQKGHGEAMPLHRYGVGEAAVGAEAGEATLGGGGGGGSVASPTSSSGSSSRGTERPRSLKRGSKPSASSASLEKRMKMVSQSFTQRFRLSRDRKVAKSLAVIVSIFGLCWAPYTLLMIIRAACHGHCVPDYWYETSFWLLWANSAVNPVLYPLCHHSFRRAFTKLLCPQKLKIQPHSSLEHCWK

As usually defined, the melting point is the temperature, or range, at which the solid turns liquid. Compound `Fc1ccc(Nc2cc(N3CCNCC3)nnc2C(F)(F)F)cc1` (as salt: HCl) (hydrate or solvate) [Co. No. 16, N-(4-fluorophenyl)-6-(1-piperazinyl)-3-(trifluoromethyl)-4-pyridazinamine.2.5HCl .0.5H2O] displayed a melting point greater than 300 °C.

`OC(c1ccccc1)c1cc(N2CCNCC2)nnc1C(F)(F)F` (stereo not drawn) (as salt: HCl) [Co. No. 5, alpha-phenyl-6-(1-piperazinyl)-3-(trifluoromethyl)-4-pyridazinemethanol]: the melting point worked out at 199.7 °C.

`FC(F)(F)c1nnc(N2CCN(Cc3ccncc3)CC2)cc1/C=C/c1ccccc1` (as salt: trifluoroacetate) [Co. No. 17, 4-[(E)-2-phenylethenyl]-6-[4-(4-pyridinylmethyl)-1-piperazinyl]-3-(trifluoromethyl)-pyridazine] showed a melting point of 163.9 °C.

One may read the Ki as a dissociation constant, usually derived from enzyme kinetics or from competition with a known ligand. A lower Ki goes with a stronger hold on the target. `Fc1ccc(Oc2cc(N3CCNCC3)nnc2C(F)(F)F)cc1` [Co. No. 1, 4-(4-fluorophenoxy)-6-(1-piperazinyl)-3-(trifluoromethyl)-pyridazine] showed a melting point of 132.5 °C. The compound further showed an inhibition constant Ki in series [1] of 5000 nM. In series [2], the IC50 was 251 nM.

With `Fc1ccc(Nc2cc(N3CCNCC3)nnc2C(F)(F)F)cc1` [Co. No. 2, N-(4-fluorophenyl)-6-(1-piperazinyl)-3-(trifluoromethyl)-4-pyridazinamine], the IC50 in series [2] is 63.1 nM.

With `FC(F)(F)c1nnc(N2CCNCC2)cc1Cc1ccccc1` [Co. No. 3, 4-(phenylmethyl)-6-(1-piperazinyl)-3-(trifluoromethyl)-pyridazine], the melting point is 133.8 °C. In addition, the inhibition constant Ki in series [1] is greater than 10000 nM. The IC50 in series [2] was 126 nM.

`O=C(c1ccccc1)c1cc(N2CCNCC2)nnc1C(F)(F)F` [Co. No. 4, phenyl[6-(1-piperazinyl)-3-(trifluoromethyl)-4-pyridazinyl]-methanone] returned a melting point of 289.5 °C. This compound registered a Ki in series [1] greater than 10000 nM. The IC50 in series [2] was 126 nM.

Turning to `OC(c1ccccc1)c1cc(N2CCNCC2)nnc1C(F)(F)F` (stereo not drawn) [Co. No. 5, alpha-phenyl-6-(1-piperazinyl)-3-(trifluoromethyl)-4-pyridazinemethanol], the Ki in series [1] is greater than 10000 nM. For the same compound, in series [2], the IC50 is 631 nM.

With `O=S(=O)(c1ccccc1)c1cc(N2CCNCC2)nnc1C(F)(F)F` [Co. No. 6, 4-(phenylsulfonyl)-6-(1-piperazinyl)-3-(trifluoromethyl)-pyridazine], the melting point was 180.3 °C. The inhibitory constant (Ki) in series [1] is greater than 10000 nM. Moreover, the IC50 in series [2] is 251 nM.

In series [1], `Fc1ccc(/C=C\c2cc(N3CCNCC3)nnc2C(F)(F)F)cc1` [Co. No. 7, 4-[(Z)-2-(4-fluorophenyl)ethenyl]-6-(1-piperazinyl)-3-(trifluoromethyl)-pyridazine] registered an inhibitory constant (Ki) greater than 10000 nM. Moreover, the IC50 in series [2] was 158 nM.

In the case of `Fc1ccc(/C=C/c2cc(N3CCNCC3)nnc2C(F)(F)F)cc1` [Co. No. 8, 4-[(E)-2-(4-fluorophenyl)ethenyl]-6-(1-piperazinyl)-3-(trifluoromethyl)-pyridazine], the melting point was determined as 180.6 °C. This compound yielded a Ki in series [1] greater than 10000 nM. Further, the IC50 in series [2] was 63.1 nM.

Take `Fc1ccc(C#Cc2cc(N3CCNCC3)nnc2C(F)(F)F)cc1` [Co. No. 9, 4-[(4-fluorophenyl)ethynyl]-6-(1-piperazinyl)-3-(trifluoromethyl)-pyridazine]: the melting point came to 251.6 °C. The compound also had an inhibition constant (Ki) in series [1] greater than 10000 nM. The IC50 in series [2] was 1580 nM.

As for `CN1CCN(c2cc(/C=C/c3ccccc3)c(C(F)(F)F)nn2)CC1` [Co. No. 11, 6-(4-methyl-1-piperazinyl)-4-[(E)-2-phenylethenyl]-3-(trifluoromethyl)-pyridazine], the melting point came to 135.8 °C. Besides, the Ki in series [1] is greater than 10000 nM. Moreover, the IC50 in series [2] is 398 nM.

In the case of `CN1CCN(c2cc(C(=O)c3ccccc3)c(C(F)(F)F)nn2)CC1` [Co. No. 13, [6-(4-methyl-1-piperazinyl)-3-(trifluoromethyl)-4-pyridazinyl]phenyl-methanone], the melting point came out at 136.3 °C. The inhibition constant Ki in series [1] was greater than 10000 nM. The IC50 in series [2] was 158 nM.

In series [1], `Fc1ccc(CNc2cc(N3CCNCC3)nnc2C(F)(F)F)cc1` [Co. No. 14, N-[(4-fluorophenyl)methyl]-6-(1-piperazinyl)-3-(trifluoromethyl)-4-pyridazinamine] displayed a Ki greater than 10000 nM. Besides, the IC50 in series [2] is 631 nM.

With `Fc1ccc(COc2cc(N3CCNCC3)nnc2C(F)(F)F)cc1` [Co. No. 15, 4-[(4-fluorophenyl)methoxy]-6-(1-piperazinyl)-3-(trifluoromethyl)-pyridazine], the melting point was 142.1 °C. In series [1], this compound registered a Ki greater than 10000 nM. For the same compound, in series [2], the IC50 was 398 nM.

`Fc1ccc(Nc2cc(N3CCNCC3)nnc2C(F)(F)F)cc1` [Co. No. 16, N-(4-fluorophenyl)-6-(1-piperazinyl)-3-(trifluoromethyl)-4-pyridazinamine.2.5HCl .0.5H2O] returned a Ki in series [1] greater than 10000 nM.

In turn, `FC(F)(F)c1nnc(N2CCN(Cc3ccncc3)CC2)cc1/C=C/c1ccccc1` [Co. No. 17, 4-[(E)-2-phenylethenyl]-6-[4-(4-pyridinylmethyl)-1-piperazinyl]-3-(trifluoromethyl)-pyridazine] returned a Ki in series [1] greater than 10000 nM. Besides, in series [2], the IC50 was 1260 nM.

In turn, `FC(F)(F)c1nnc(N2CCN(Cc3ccccn3)CC2)cc1/C=C/c1ccccc1` [Co. No. 18, 4-[(E)-2-phenylethenyl]-6-[4-(2-pyridinylmethyl)-1-piperazinyl]-3-(trifluoromethyl)-pyridazine] yielded a melting point of 121.4 °C. Besides, in series [1], the Ki was greater than 10000 nM. For the same compound, the IC50 in series [2] was 6310 nM.

What is called Kd is the free concentration of one partner at which half of the binding sites on the other are occupied at equilibrium, for simple one-to-one binding. Regarding `Ic1ccc(COCCCc2cnc[nH]2)cc1` [^125I-iodoproxyfan], the Kd in series [3] was 1 nM.
